Results: patent US6638957B1, “Use of compounds with a nitrogen-oxygen heterocycle” (Jomaa Pharmaka GmbH, priority 1999, dated 2003)
≈ marks a conversion by molar mass, not a printed value. Like-named read-outs stand apart in the source and are kept apart here.

Experiments:
[1] = tested on: Beta vulgaris; test: herbicidal activity, Erde Nachauflauf; format: in vivo; conditions: 2000 Gramm/Hektar
Method: (§1) The determination of herbicidal activity is performed according to standard procedure. Again the compounds listed on page 9 are tested.

[2] = tested on: Cyperus esculentus; test: herbicidal activity, Erde Nachauflauf; format: in vivo; conditions: 2000 Gramm/Hektar
Method: as §1

[3] = tested on: Amaranthus retroflexus; test: herbicidal activity, Erde Nachauflauf; format: in vivo; conditions: 2000 Gramm/Hektar
Method: as §1

[4] = tested on: Sinapis arvensis; test: herbicidal activity, Erde Nachauflauf; format: in vivo; conditions: Mutarda arvensis; 2000 Gramm/Hektar
Method: as §1

[5] = tested on: Avena fatua; test: herbicidal activity, Erde Nachauflauf; format: in vivo; conditions: 2000 Gramm/Hektar
Method: as §1

[6] = tested on: Setaria viridis; test: herbicidal activity, Erde Nachauflauf; format: in vivo; conditions: 2000 Gramm/Hektar
Method: as §1

[7] = tested on: Galium aperine; test: herbicidal activity, Erde Nachauflauf; format: in vivo; conditions: 2000 Gramm/Hektar
Method: as §1

[8] = tested on: Zea mays; test: herbicidal activity, Erde Nachauflauf; format: in vivo; conditions: 2000 Gramm/Hektar
Method: as §1

[9] = tested on: Abutilon theophrasti; test: herbicidal activity, Erde Nachauflauf; format: in vivo; conditions: 2000 Gramm/Hektar
Method: as §1

[10] = tested on: Xanthium strumarium; test: herbicidal activity, Erde Nachauflauf; format: in vivo; conditions: 2000 Gramm/Hektar
Method: as §1

[11] = tested on: Alopecurus myosuroides; test: herbicidal activity, Erde Nachauflauf; format: in vivo; conditions: 2000 Gramm/Hektar
Method: as §1

[12] = tested on: Beta vulgaris; test: herbicidal activity, Erde Vorauflauf; format: in vivo; conditions: 2000 Gramm/Hektar
Method: as §1

[13] = tested on: Cyperus esculentus; test: herbicidal activity, Erde Vorauflauf; format: in vivo; conditions: 2000 Gramm/Hektar
Method: as §1

[14] = tested on: Amaranthus retroflexus; test: herbicidal activity, Erde Vorauflauf; format: in vivo; conditions: 2000 Gramm/Hektar
Method: as §1

[15] = tested on: Sinapis arvensis; test: herbicidal activity, Erde Vorauflauf; format: in vivo; conditions: Mutarda arvensis; 2000 Gramm/Hektar
Method: as §1

[16] = tested on: Avena fatua; test: herbicidal activity, Erde Vorauflauf; format: in vivo; conditions: 2000 Gramm/Hektar
Method: as §1

[17] = tested on: Setaria viridis; test: herbicidal activity, Erde Vorauflauf; format: in vivo; conditions: 2000 Gramm/Hektar
Method: as §1

[18] = tested on: Galium aperine; test: herbicidal activity, Erde Vorauflauf; format: in vivo; conditions: 2000 Gramm/Hektar
Method: as §1

[19] = tested on: Zea mays; test: herbicidal activity, Erde Vorauflauf; format: in vivo; conditions: 2000 Gramm/Hektar
Method: as §1

[20] = tested on: Abutilon theophrasti; test: herbicidal activity, Erde Vorauflauf; format: in vivo; conditions: 2000 Gramm/Hektar
Method: as §1

[21] = tested on: Xanthium strumarium; test: herbicidal activity, Erde Vorauflauf; format: in vivo; conditions: 2000 Gramm/Hektar
Method: as §1

[22] = tested on: Alopecurus myosuroides; test: herbicidal activity, Erde Vorauflauf; format: in vivo; conditions: 2000 Gramm/Hektar
Method: as §1

[23] = tested on: Plasmodium falciparum; test: antimalaria activity on in vitro cultures, [3H]-hypoxanthine incorporation; format: cell-based; conditions: 72 h, inhibition of [3H]-hypoxanthine incorporation, 48 + 24 hours, read-out: IC50(nM) of malaria culture (Plasmodium falciparum)
Method: The antimalaria activity of the compounds listed on page 9 was determined on in vitro cultures of the malaria pathogen Plasmodium falciparum. The depressions of a 96-well microtitre plate were charged with in each case 200 μl of an asynchroneous Plasmodium falciparum culture at a parasitaemia of 0,4% and haematokrit of 2%. A serial dilution series of the compounds in triple steps between concentrations of 100 to 0,14 μmol 1^−1 was then prepared. The plates were incubated at 37° C., 3% CO2 and 5% O2 over a period of 48 hours. 30 μl medium supplemented with 27 μCi ml^−1 [^3H]-hypoxanthine were then added to each well. After incubation for 24 hours the parasites were harvested by filtration on a glass fibre filter and the radioactivity which had been incorporated was measured. The inhibition of the growth of parasites was measured as the percentage inhibition of the incorporation of tritium. Inhibition of the growth of the parasites has been determined as percentage inhibition of incorporation of tritium based on a comparison without the substance. The half-maximum inhibitory concentration (IC50) of the substance was determined by extrapolation of the values.

[24] = tested on: Pseudomonas aeruginosa; test: antibacterial activity, minimum inhibition concentration in liquid culture; format: cell-based; conditions: read-out: MIC(nM) of bacteria culture (Pseudomonas aeruginosa)
Method: A dilution series comprising the concentrations 500, 100, 50, 10 and 0 μmol 1^−1 of the individual compounds in LB medium is introduced into 5 culture microtubes in a volume of 0,5 ml. The tubes were inoculated with 10 μl of an overnight culture of E. coli K12 and shaken overnight at 37° C. The growth of the bacteria was assessed on the basis of the turbidity of the medium. The minimum concentration causing inhibition of bacterial growth was determined (minimum inhibition concentration MIC)
The antibacterial activity of P. aeruginosa was determined in the same manner.

[25] = biological target: T1, DOXP reductoisomerase of Escherichia coli (UniProt P56139); test: inhibition of recombinant DOXP reductoisomerase (NADPH oxidation); format: biochemical; conditions: 1 mM DOXP, 0,3 mM NADPH, pH 7,5; read-out: IC50(nM) of DOXP reductoisomerase from Helicobacter pilori
T1 sequence (P56139 1-368): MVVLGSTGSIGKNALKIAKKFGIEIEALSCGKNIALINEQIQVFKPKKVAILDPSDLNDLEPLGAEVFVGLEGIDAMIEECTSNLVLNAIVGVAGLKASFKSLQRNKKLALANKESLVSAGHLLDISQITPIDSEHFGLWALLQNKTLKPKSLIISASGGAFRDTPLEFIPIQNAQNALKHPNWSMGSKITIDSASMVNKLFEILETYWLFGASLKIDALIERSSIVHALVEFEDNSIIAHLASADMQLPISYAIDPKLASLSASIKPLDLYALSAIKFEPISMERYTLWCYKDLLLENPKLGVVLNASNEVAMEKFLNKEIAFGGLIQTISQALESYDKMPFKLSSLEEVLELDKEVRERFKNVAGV

[26] = tested on: Echinochloa; test: herbicidal activity, Hydro Vorauflauf; format: in vivo; conditions: 4000 Gramm/Hektar
Method: as §1

[27] = tested on: Solanum; test: herbicidal activity, Hydro Vorauflauf; format: in vivo; conditions: 4000 Gramm/Hektar
Method: as §1

[28] = tested on: Lepidium; test: herbicidal activity, Hydro Vorauflauf; format: in vivo; conditions: 4000 Gramm/Hektar
Method: as §1

[29] = tested on: Reis; test: herbicidal activity, Hydro Vorauflauf; format: in vivo; conditions: 4000 Gramm/Hektar
Method: as §1

Row | Structure (SMILES) | plant injury at 2000 g/ha [1] [%] | pest or weed control at 2000 g/ha [2] [%] | pest or weed control at 2000 g/ha [3] [%] | pest or weed control at 2000 g/ha [4] [%] | pest or weed control at 2000 g/ha [5] [%] | pest or weed control at 2000 g/ha [6] [%] | pest or weed control at 2000 g/ha [7] [%] | plant injury at 2000 g/ha [8] [%] | pest or weed control at 2000 g/ha [9] [%] | pest or weed control at 2000 g/ha [10] [%] | pest or weed control at 2000 g/ha [11] [%] | plant injury at 2000 g/ha [12] [%] | pest or weed control at 2000 g/ha [13] [%] | pest or weed control at 2000 g/ha [14] [%] | pest or weed control at 2000 g/ha [15] [%] | pest or weed control at 2000 g/ha [16] [%] | pest or weed control at 2000 g/ha [17] [%] | pest or weed control at 2000 g/ha [18] [%] | plant injury at 2000 g/ha [19] [%] | pest or weed control at 2000 g/ha [20] [%] | further results
1 | CC1CON(COCP(C)(=O)O)C1=O (stereo not drawn) [Compound 3] | 90 | 0 | 60 | 70 | 50 | 70 | 40 | 70 | 60 | 60 | 60 | 30 | 0 | 0 | 30 | 0 | 0 | 0 | 0 | 0 | pest or weed control at 2000 g/ha [21]: 0%; pest or weed control at 2000 g/ha [22]: 60%; IC50 [23]: 1700 nM; MIC [24]: 2200 nM (≈ 0.491 µg/mL); IC50 [25]: 125 nM; pest or weed control at 4000 g/ha [26]: 40%; pest or weed control at 4000 g/ha [27]: 0%; pest or weed control at 4000 g/ha [28]: 30%; pest or weed control at 4000 g/ha [29]: 40%
2 | CC1CON(CCCP(=O)(O)O)C1=O (stereo not drawn) [Compound 5] | 40 | 0 | 30 | 90 | 40 | 95 | 70 | 80 | 40 | 60 | 80 | 30 | 0 | 0 | 50 | 0 | 0 | 0 | 0 | 0 | pest or weed control at 2000 g/ha [21]: 0%; pest or weed control at 2000 g/ha [22]: 60%; IC50 [23]: 1200 nM; MIC [24]: 2200 nM (≈ 0.491 µg/mL); IC50 [25]: 100 nM; pest or weed control at 4000 g/ha [26]: 60%; pest or weed control at 4000 g/ha [27]: 0%; pest or weed control at 4000 g/ha [28]: 40%; pest or weed control at 4000 g/ha [29]: 40%
3 | CC(C)N(C)CCCN1OCCC1=O [Compound 7] | 70 | 0 | 50 | 80 | 80 | 90 | 95 | 70 | 50 | 90 | 80 | 70 | 0 | 20 | 30 | 30 | 0 | 0 | 30 | 0 | pest or weed control at 2000 g/ha [21]: 0%; pest or weed control at 2000 g/ha [22]: 30%; IC50 [23]: 400 nM; MIC ([24]; LB medium, overnight at 37° C., turbidity): 9000 nM (≈ 1.8 µg/mL); IC50 [25]: 18 nM; pest or weed control at 4000 g/ha [26]: 40%; pest or weed control at 4000 g/ha [27]: 30%; pest or weed control at 4000 g/ha [28]: 0%; pest or weed control at 4000 g/ha [29]: 30%
